Results on four compounds are retold here after ChEMBL document CHEMBL1153521, “A novel decoy that interrupts G93A-superoxide dismutase gain of interaction with malate dehydrogenase improves survival in an amyotrophic lateral sclerosis cell model” (J Med Chem, 2009).

Data set [1] has as its system NSC-34. Kind of data set: Inhibition of interaction of CFP-tagged human SOD1 G93A mutant with YFP-tagged MDH1 transfected in mouse NSC-34 cells by FRET assay. The class given is cell-based. Also noted: scale not given: the % may be the effect or the level left.
Data set [2] in a line: Protective effect against 2 mg/ml glucose-induced toxicity in mouse NSC-34 cells expressing GFP-tagged human SOD1 G93A mutant assessed as increase in survival at 1 uM after 48 hrs by methylene blue assay relative to 2 mg/ml glucose-treated cells expressing GFP-tagged wild type human SOD1. The class given is functional.
The subject of data set [3] is NSC-34. Kind of data set: Inhibition of interaction of human SOD1 G93A mutant with YFP-tagged MDH1 transfected in mouse NSC-34 cells after 48 hrs by pull-down immunoprecipitation analysis. The class given is cell-based.
Data set [4] can be described thus: Increase in ATP level in mouse NSC-34 cells expressing human SOD1 G93A mutant at 1 uM after 48 hrs relative to cells expressing wild type human SOD1. The class given is functional.
A short description of data set [5]: Protective effect against rotenone-induced toxicity in mouse NSC-34 cells expressing GFP-tagged human SOD1 G93A mutant assessed as increase in survival at 1 uM after 48 hrs by methylene blue assay relative to rotenone-treated cells expressing GFP-tagged wild type human SOD1. The class given is functional.
Data set [6] can be described thus: Drug penetration in mouse NSC-34 cells at 1 uM after 24 hrs by fluorescence confocal microscopy. The class given is ADME, cell-based. The settings on record: nsc-34, 24 h.

The source made the active and inactive calls. The rule behind the calls is not given here. Peptide text beside a SMILES is read from it. * marks the point of attachment. X1 = CN(C)c1ccc2c(-c3ccc(C(=O)*)cc3C(=O)O)c3ccc(=[N+](C)C)cc-3oc2c1

Compound H-SWLKGEFITTVQQRGAAVIKARK-OH returned an Activity in data set [1] of 79%.

In the case of `CC[C@H](C)[C@H](NC(=O)[C@H](Cc1ccccc1)NC(=O)[C@H](CCC(=O)O)NC(=O)CNC(=O)[C@H](CCCCN)NC(=O)[C@H](CC(C)C)NC(=O)[C@H](Cc1c[nH]c2ccccc12)NC(=O)[C@H](CO)NC(=O)c1ccc(-c2c3ccc(=[N+](C)C)cc-3oc3cc(N(C)C)ccc23)c(C(=O)O)c1)C(=O)N[C@H](C(=O)N[C@H](C(=O)N[C@H](C(=O)N[C@@H](CCC(N)=O)C(=O)N[C@@H](CCC(N)=O)C(=O)N[C@@H](CCCNC(=N)N)C(=O)NCC(=O)N[C@@H](C)C(=O)N[C@@H](C)C(=O)N[C@H](C(=O)N[C@H](C(=O)N[C@@H](CCCCN)C(=O)N[C@@H](C)C(=O)N[C@@H](CCCNC(=N)N)C(=O)N[C@@H](CCCCN)C(=O)O)[C@@H](C)CC)C(C)C)C(C)C)[C@@H](C)O)[C@@H](C)O` (X1-SWLKGEFITTVQQRGAAVIKARK-OH), the Activity in data set [2] is 97%; in data set [4], 90%; in data set [5], 98%. Besides, the inhibition result in data set [3] was “Active”. Besides, in data set [6], the Drug uptake was 100%.

Take H-GQIAYSLLYSIGNGS-OH: the outcome in data set [1] was inactive.

Consider `CC(C)C[C@H](NC(=O)[C@H](CC(N)=O)NC(=O)c1ccc(-c2c3ccc(=[N+](C)C)cc-3oc3cc(N(C)C)ccc23)c(C(=O)O)c1)C(=O)N[C@@H](CO)C(=O)O`, for which the inhibition entry in data set [3] is “inactive”. Also, in data set [6], the Drug uptake is 100%.
